Source: ChEMBL document CHEMBL3124775 (Bioorg Med Chem, 2014)

Experiments:
Carbonic anhydrase 1 = Carbonic anhydrase 1 (Homo sapiens, UniProt P00915); test: Inhibition of human carbonic anhydrase 1 by stopped-flow CO2 hydrase assay
Carbonic anhydrase 12 = Carbonic anhydrase 12 (Homo sapiens, UniProt O43570)
Description: Inhibition of human carbonic anhydrase 12 by stopped-flow CO2 hydrase assay

Carbonic anhydrase 9 = Carbonic anhydrase 9 (Homo sapiens, UniProt Q16790)
Description: Inhibition of human carbonic anhydrase 9 by stopped-flow CO2 hydrase assay

Carbonic anhydrase 2 = Carbonic anhydrase 2 (Homo sapiens, UniProt P00918); test: Inhibition of human carbonic anhydrase 2 by stopped-flow CO2 hydrase assay

Chain of Carbonic anhydrase 1 (P00915 whole entry): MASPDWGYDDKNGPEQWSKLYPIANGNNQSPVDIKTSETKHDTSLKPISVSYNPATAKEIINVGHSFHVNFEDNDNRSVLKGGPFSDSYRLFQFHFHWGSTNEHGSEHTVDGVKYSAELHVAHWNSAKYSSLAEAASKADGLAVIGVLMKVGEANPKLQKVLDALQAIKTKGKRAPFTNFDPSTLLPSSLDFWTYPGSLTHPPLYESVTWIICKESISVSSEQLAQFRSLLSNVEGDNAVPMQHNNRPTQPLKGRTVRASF
Chain of Carbonic anhydrase 12 (O43570 whole entry): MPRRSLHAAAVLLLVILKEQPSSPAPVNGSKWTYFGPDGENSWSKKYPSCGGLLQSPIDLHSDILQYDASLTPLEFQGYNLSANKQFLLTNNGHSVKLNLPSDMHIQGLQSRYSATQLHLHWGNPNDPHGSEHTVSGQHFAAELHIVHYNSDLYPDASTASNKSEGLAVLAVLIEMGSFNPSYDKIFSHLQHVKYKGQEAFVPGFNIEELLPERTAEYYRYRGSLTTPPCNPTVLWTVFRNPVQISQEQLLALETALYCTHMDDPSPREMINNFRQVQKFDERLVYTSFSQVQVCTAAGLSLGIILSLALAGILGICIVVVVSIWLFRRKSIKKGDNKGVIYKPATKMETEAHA

| SMILES | Ki (Carbonic anhydrase 1) [µM] | Ki (Carbonic anhydrase 12) [µM] | Ki (Carbonic anhydrase 9) [µM] | Ki (Carbonic anhydrase 2) [µM] |
| --- | --- | --- | --- | --- |
| O=C1c2ccccc2S(=O)(=O)N1Cc1cccc([N+](=O)[O-])c1 | > 50 | 0.0246 |  |  |
| C=CCN1C(=O)c2ccccc2S1(=O)=O | > 50 | 0.094 | 0.14 |  |
| O=C1c2ccccc2S(=O)(=O)N1Cc1ccccc1F | > 50 | 2.52 | > 50 | > 50 |
| O=C1c2ccccc2S(=O)(=O)N1CC(O)COc1ccc(Cl)cc1 (stereo unspecified) | > 50 | 2.91 | 0.23 | 1.8 |
| O=C1c2ccccc2S(=O)(=O)N1Cc1c(F)cccc1F | > 50 | 1.31 | > 50 |  |
| O=C1c2ccccc2S(=O)(=O)N1Cc1cccc2ccccc12 | > 50 | 2.54 | > 50 | > 50 |
| O=C1c2ccccc2S(=O)(=O)N1Cc1ccccc1Br | > 50 | 0.0251 | > 50 |  |
| C#CCN1C(=O)c2ccccc2S1(=O)=O | > 50 | 0.57 | 0.21 |  |
| O=S1(=O)N=C(OCc2cccc(Br)c2)c2ccccc21 | > 50 | > 50 | > 50 | > 50 |
| O=C1c2ccccc2S(=O)(=O)N1Cc1cccc(F)c1 | > 50 | 2.69 | 0.38 |  |
| O=C1c2ccccc2C(=O)N1CN1C(=O)c2ccccc2S1(=O)=O | > 50 | 13.4 | > 50 | > 50 |
| O=C1c2ccccc2S(=O)(=O)N1Cc1cc(-c2ccc([N+](=O)[O-])cc2)no1 | > 50 |  | 0.31 | > 50 |
| CC(=O)CN1C(=O)c2ccccc2S1(=O)=O | > 50 | 0.44 | 0.15 |  |
| N#CCCCN1C(=O)c2ccccc2S1(=O)=O | > 50 | > 50 | 0.29 |  |
| N#CCN1C(=O)c2ccccc2S1(=O)=O | > 50 | 0.71 | 0.29 | > 50 |
| O=C1c2ccccc2S(=O)(=O)N1Cc1cccc(Br)c1 | > 50 | 0.0211 | 0.36 |  |
| O=C(CN1C(=O)c2ccccc2S1(=O)=O)c1ccccc1 | > 50 | 1.78 | > 50 | > 50 |
| C/C(CN1C(=O)c2ccccc2S1(=O)=O)=N\O (mixture of isomers) | > 50 | 0.24 | 0.27 |  |
| CNC(=O)CN1C(=O)c2ccccc2S1(=O)=O | > 50 | 0.0284 | 0.2 | 0.0381 |
| O=C(CN1C(=O)c2ccccc2S1(=O)=O)c1cccc([N+](=O)[O-])c1 | > 50 | 2.01 | > 50 | > 50 |
| C/C=C/CN1C(=O)c2ccccc2S1(=O)=O | > 50 | 0.21 | 0.097 |  |
| O=C(O)CN1C(=O)c2ccccc2S1(=O)=O | > 50 | 0.0419 | 0.31 | > 50 |
| O=C(CN1C(=O)c2ccccc2S1(=O)=O)c1ccccc1[N+](=O)[O-] | > 50 | 0.97 | > 50 | > 50 |
| O=[N+]([O-])c1ccccc1CNS(=O)(=O)c1ccccc1CO | > 50 | 0.25 | > 50 | > 50 |
| CCOC(=O)CN1C(=O)c2ccccc2S1(=O)=O | > 50 | 0.0765 | 0.33 |  |
| N#Cc1ccc(CN2C(=O)c3ccccc3S2(=O)=O)cc1 | > 50 | 0.15 | 0.24 |  |
| O=C1c2ccccc2S(=O)(=O)N1Cc1ccc(Cl)c(Cl)c1 | > 50 | 2.76 | 0.39 | > 50 |
| O=C1c2ccccc2S(=O)(=O)N1Cc1ccccc1[N+](=O)[O-] | > 50 | 0.0281 | 0.091 |  |
